Test results published in EPA's CvTdb concentration-time database.

Legend:
Rat [1] = experiment: concentration in plasma after dosing
rat [2] = experiment: concentration in blood after dosing; negative times count back from the end of exposure; details: inhalation, male
Mouse = experiment: concentration in plasma after dosing; details: dosed: 2-Hydroxy-4-methoxybenzophenone, B6C3F1

c1ccncc1 [Pyridine]
concentration in plasma [ng/mL], Rat [1], dosed: Pyridine
Details | iv | oral
0.05 h, 5 mg/kg, Male, F344 | 5520 | –
0.25 h, 5 mg/kg, Male, F344 | 2430 | –
0.25 h, 10 mg/kg, Male, F344 | 4140 | –
0.5 h, 5 mg/kg, Male, F344 | 3550 | 2630
0.5 h, 25 mg/kg, Male, F344 | – | 16500
1 h, 5 mg/kg, Male, F344 | – | 2900
1 h, 25 mg/kg, Female, Harlan Sprague-Dawley | – | 18800
2 h, 5 mg/kg, Male, F344 | 2390 | 2920
2 h, 10 mg/kg, Male, F344 | 185 | –
2 h, 25 mg/kg, Female, Harlan Sprague-Dawley | – | 15700
2 min, 10 mg/kg, Male, F344 | 4390 | 716
4 h, 5 mg/kg, Male, F344 | 2090 | 2610
4 h, 25 mg/kg, Male, F344 | – | 15000
5 min, 5 mg/kg, Male, F344 | – | 1700
5 min, 10 mg/kg, Male, F344 | 2280 | –
5 min, 25 mg/kg, Male, F344 | – | 5570
6 h, 5 mg/kg, Male, F344 | 1640 | 1550
6 h, 25 mg/kg, Male, F344 | – | 15300
8 h, 5 mg/kg, Male, F344 | 1620 | 1070
8 h, 25 mg/kg, Female, Harlan Sprague-Dawley | – | 15400
9 h, 5 mg/kg, Male, F344 | – | 1280
10 min, 10 mg/kg, Male, F344 | – | 3820
11 h, 5 mg/kg, Male, F344 | – | 659
14 h, 25 mg/kg, Female, Harlan Sprague-Dawley | – | 10000
20 h, 25 mg/kg, Male, F344 | – | 2910
20 min, 10 mg/kg, Female, Harlan Sprague-Dawley | – | 2720
20 min, 10 mg/kg, Male, F344 | 3160 | –
24 h, 25 mg/kg, Male, F344 | – | 1640
40 h, 100 mg/kg, Male, F344 | – | 11600
40 min, 10 mg/kg, Female, Harlan Sprague-Dawley | – | 2560
50 min, 10 mg/kg, Male, F344 | 3220 | –

OCC(Cl)(Cl)Cl [trichloroethanol (free)]
rat [2], dosed: trichloroethylene, 50 ppm, duration: 4 hr, Sprague Dawley
Details | concentration in blood [ng/mL]
0.1729 h | 1250
0.1865 h | 2020
0.2651 h | 1140
0.2753 h | 828
0.3836 h | 2260
0.4311 h | 1340
0.5027 h | 1180
0.594 h | 829
0.9111 h | 1110
0.9517 h | 1010
1.022 h | 1130
1.11 h | 898
1.769 h | 955
1.908 h | 1010
2.006 h | 889
3.915 h | 1650
3.921 h | 897
4.003 h | 757
5.934 h | 757
5.937 h | 703
5.949 h | 1380
5.978 h | 655
7.942 h | 1260
7.97 h | 667
7.992 h | 595
9.919 h | 656
9.986 h | 538
10.01 h | 509
10.11 h | 1120
11.91 h | 627
11.95 h | 1030
11.98 h | 546
12.02 h | 481
13.9 h | 557
13.93 h | 469
13.94 h | 1040
13.99 h | 534
15.9 h | 507
15.93 h | 893
15.95 h | 448
17.94 h | 348
17.96 h | 350
41 s | 978
86 s | 1200

rat [2], dosed: trichloroethylene, 50 ppm, duration: 4 hr, Sprague Dawley, during exposure
Details | concentration in blood [ng/mL]
-169 s | 1350
-3.506 h | 437
-3.433 h | 315
-3.408 h | 626
-3.033 h | 1060
-3.009 h | 547
-3 h | 486
-2.975 h | 327
-2.015 h | 830
-2.001 h | 1560
-1.996 h | 845
-1.989 h | 628
-1.021 h | 1080
-1.008 h | 1890
-0.9983 h | 790
-0.9843 h | 968
-0.032 h | 1940

C=C(Cl)Cl [1,1-dichloroethylene]
rat [2], dosed: 1,1-dichloroethylene, duration: 3 hr, Sprague-Dawley
Details | concentration in blood [ng/mL]
0.1331 h, 75 ppm | 162
0.1373 h, 300 ppm | 2120
0.1374 h, 25 ppm | 61.4
0.1383 h, 150 ppm | 122
0.1969 h, 75 ppm | 117
0.1973 h, 150 ppm | 108
0.1979 h, 25 ppm | 38.6
0.2044 h, 300 ppm | 1740
0.2603 h, 150 ppm | 92.9
0.2608 h, 75 ppm | 83.7
0.261 h, 25 ppm | 32.9
0.2757 h, 300 ppm | 1350
0.3322 h, 75 ppm | 62.5
0.3352 h, 300 ppm | 1060
0.3356 h, 25 ppm | 29.2
0.3396 h, 150 ppm | 68
0.3946 h, 150 ppm | 61.6
0.3984 h, 25 ppm | 26.6
0.3984 h, 300 ppm | 874
0.3991 h, 75 ppm | 54.9
0.496 h, 25 ppm | 25.4
0.4961 h, 150 ppm | 60
0.508 h, 300 ppm | 801
0.5085 h, 75 ppm | 50.8
4 s, 75 ppm | 340
13 s, 150 ppm | 473
118 s, 25 ppm | 126
132 s, 75 ppm | 312
133 s, 150 ppm | 291
137 s, 300 ppm | 3090
232 s, 75 ppm | 275
238 s, 25 ppm | 78.9
238 s, 150 ppm | 188
253 s, 300 ppm | 2500

rat [2], dosed: 1,1-dichloroethylene, duration: 3 hr, Sprague-Dawley, during exposure
Details | concentration in blood [ng/mL]
-14 s, 25 ppm | 184
-8 s, 300 ppm | 4150
-2.956 h, 25 ppm | 50.3
-2.956 h, 75 ppm | 100
-2.954 h, 300 ppm | 1030
-2.951 h, 150 ppm | 83
-2.903 h, 25 ppm | 67.4
-2.899 h, 75 ppm | 139
-2.899 h, 150 ppm | 154
-2.893 h, 300 ppm | 1320
-2.861 h, 150 ppm | 190
-2.854 h, 300 ppm | 1490
-2.853 h, 75 ppm | 170
-2.846 h, 25 ppm | 92.7
-2.793 h, 25 ppm | 128
-2.793 h, 300 ppm | 1680
-2.792 h, 150 ppm | 271
-2.787 h, 75 ppm | 188
-2.729 h, 75 ppm | 212
-2.727 h, 25 ppm | 143
-2.727 h, 150 ppm | 302
-2.727 h, 300 ppm | 1840
-2.657 h, 150 ppm | 325
-2.653 h, 25 ppm | 149
-2.653 h, 300 ppm | 1920
-2.652 h, 75 ppm | 253
-2.583 h, 300 ppm | 2080
-2.582 h, 75 ppm | 263
-2.575 h, 25 ppm | 143
-2.568 h, 150 ppm | 371
-2.498 h, 25 ppm | 155
-2.494 h, 300 ppm | 2200
-2.492 h, 75 ppm | 283
-2.49 h, 150 ppm | 408
-2.396 h, 300 ppm | 2250
-2.393 h, 25 ppm | 162
-2.391 h, 75 ppm | 301
-2.389 h, 150 ppm | 421
-2.197 h, 75 ppm | 333
-2.194 h, 25 ppm | 162
-2.194 h, 150 ppm | 424
-2.194 h, 300 ppm | 2410
-1.996 h, 300 ppm | 2600
-1.995 h, 25 ppm | 166
-1.99 h, 75 ppm | 335
-1.988 h, 150 ppm | 461
-1.743 h, 300 ppm | 2760
-1.742 h, 25 ppm | 171
-1.741 h, 75 ppm | 340
-1.738 h, 150 ppm | 453
-1.5 h, 25 ppm | 176
-1.497 h, 300 ppm | 3050
-1.496 h, 75 ppm | 346
-1.493 h, 150 ppm | 463
-1.003 h, 300 ppm | 3380
-1.002 h, 150 ppm | 450
-0.9974 h, 25 ppm | 172
-0.9966 h, 75 ppm | 338
-0.5007 h, 300 ppm | 3850
-0.4991 h, 150 ppm | 466
-0.4977 h, 75 ppm | 337
-0.4481 h, 25 ppm | 182

O=C(c1ccccc1)c1ccc(O)cc1O [2,4-Dihydroxybenzophenone]
concentration in plasma [ng/mL], Mouse
Details | 0.25 h | 2 h | 2.5 min | 3 h | 10 min
50 mg/kg, iv, Female | 800 | 44.6 | – | 63.1 | 1700
50 mg/kg, iv, Male | 1440 | 230 | – | 70.5 | 3710
100 mg/kg, oral, Female | 721 | 61.9 | 44 | 50.2 | 383
100 mg/kg, oral, Male | 171 | 320 | 120 | 109 | 195
250 mg/kg, oral, Female | 1340 | 185 | 71.2 | 120 | 1840
250 mg/kg, oral, Male | 988 | 338 | 115 | 265 | 542
500 mg/kg, oral, Female | 3280 | 309 | – | – | 2800
500 mg/kg, oral, Male | 1510 | 282 | – | – | 1110

concentration in plasma [ng/mL], Rat [1], dosed: 2-Hydroxy-4-methoxybenzophenone, oral, F344
Details | 0.25 h | 0.5 h | 2.5 min | 3 h | 4 h | 5 h | 6 h | 10 h | 10 min | 12 h
100 mg/kg, Female | 174 | 145 | 64.3 | 82.3 | 54.2 | 60.3 | – | – | 200 | –
100 mg/kg, Male | 52.2 | 114 | – | 38.2 | 65.6 | 55.8 | – | – | 31 | –
250 mg/kg, Female | 410 | 658 | – | 166 | 157 | – | – | 89.8 | 57.2 | –
250 mg/kg, Male | 109 | 218 | – | 114 | 92.3 | – | – | 91.7 | 39.4 | –
500 mg/kg, Female | 287 | 688 | – | – | 296 | – | – | 242 | 178 | 185
500 mg/kg, Male | 180 | 192 | – | – | 233 | – | 171 | – | 2430 | 246
